Columns and labels:
Format in all cases: physicochemical
[1] = Experimental Example 7: evaluation of hygroscopicity by weight gain over time (60 to 66% RH); settings: 24 EC
Procedure: The L-Ala-OMe HCl salt, L-Ala-OMe 4-EBS salt, L-Ala-OMe 2,4-DMBS salt, and L-Ala-OMe 2,5-DMBS salt were measured in an amount of about 0.3 g each, left standing in a thermostatic chamber at temperature of 24 EC and a humidity of 60 to 66% RH, and the hygroscopicity was compared based on the weight gain with the lapse of time. A part of the crystal of the L-Ala-OMe HCl salt was liquefied in 10 minutes, and the entirety became a sherbet in 20 minute. The liquefied portion increased thereafter with the lapse of time. After 80 minutes, the whole was liquefied.

[2] = Experimental Example 2: comparison of hygroscopicity by weight gain over time (62 to 64% RH); settings: 24° C.
Procedure: In the same manner as in Experimental Example 1, L-Ala-OEt MsOH salt and L-Ala-OMe HCl salt were measured into a glass container in an amount of 0.6 g each, left under conditions of temperature: 24° C., humidity: 62 to 64% RH, and then the hygroscopicity was compared based on the weight gain with the lapse of time.

[3] = Experimental Example 5: comparison of hygroscopicity by weight gain over time (60 to 66% RH); settings: 24 EC
Procedure: The L-Ala-OMe HCl salt, L-Ala-OEt MsOH salt, L-Ala-OEt BsOH salt, L-Ala-OEt 4-CBS salt, L-Ala-OEt 4-EBS salt, L-Ala-OEt 2,4-DMBS salt, and L-Ala-OEt 2,5-DMBS salt were measured in an amount of about 0.3 g each, left standing in a thermostatic chamber at a temperature of 24 EC and a humidity of 60 to 66% RH, and the hygroscopicity was compared based on the weight gain with the lapse of time.

[4] = Experimental Example 4: comparison of hygroscopicity by weight gain over time (40 to 46% RH); settings: 24° C.
Procedure: The L-Ala-OEt HCl salt, L-Ala-OEt MsOH salt, L-Ala-OEt BsOH salt, L-Ala-OEt 4-CBS salt, L-Ala-OEt 4-EBS salt, L-Ala-OEt 2,4-DMBS salt, and L-Ala-OEt 2,5-DMBS salt were measured in an amount of about 0.3 g each, left standing in a thermostatic chamber at a temperature of 24° C. and a humidity of 40 to 46% RH, and the hygroscopicity was compared based on the weight gain with the lapse of time. A part of the crystal of the L-Ala-OEt HCl salt was liquefied in 30 minutes, and the liquefied portion increased thereafter with the lapse of time. After 100 minutes, the whole mass became like a sherbet.

[5] = Experimental Example 1: comparison of hygroscopicity by weight gain over time (44 to 45% RH); settings: 22 to 24° C.
Procedure: L-Ala-OEt HCl salt and L-Ala-OEt MsOH salt were measured into in a glass container in an amount of 1.6 g each, dried in vacuo at 30° C. for 5 hours, left under conditions of temperature: 22 to 24° C., humidity: 44 to 45% RH, and then the hygroscopicity was compared based on the weight gain over the lapse of time. […] The liquefied portion increased with the lapse of time, and the entire salt became liquid 750 minutes later with no observable crystal.

## COC(=O)[C@H](C)N.Cl [L-Ala-OMe HCl salt, alanine methyl ester hydrochloride, reference compound]
[1]
  time until a part of the crystal was liquefied: 10 min
  time until the entirety became a sherbet: 20 min
  time until the whole was liquefied: 80 min
[1]; 0 min
  weight increase rate (%): 0.00%
[1]; 10 min
  state of the crystals: (partly liquefied)
  weight increase rate (%): 6.74%
[1]; 20 min
  state of the crystals: (sherbet state)
  weight increase rate (%): 10.06%
[1]; 35 min
  weight increase rate (%): 12.52%
[1]; 50 min
  weight increase rate (%): 14.31%
[1]; 65 min
  weight increase rate (%): 15.69%
[1]; 80 min
  state of the crystals: (entirely liquefied)
  weight increase rate (%): 17.16%
[1]; 95 min
  weight increase rate (%): 18.31%
[1]; 110 min
  weight increase rate (%): 19.42%
[1]; 125 min
  weight increase rate (%): 20.54%
[1]; 140 min
  weight increase rate (%): 21.66%
[1]; 155 min
  weight increase rate (%): 22.62%
[1]; 170 min
  weight increase rate (%): 23.55%
[1]; 185 min
  weight increase rate (%): 24.41%
[1]; 200 min
  weight increase rate (%): 25.14%
[2]
  time to liquefaction of a part of the crystals: 20 min
  time until the entire salt became liquid: 155 min
[2]; 0 minutes
  weight increase rate (% relative to initial weight): 0.00%
[2]; 10 minutes
  weight increase rate (% relative to initial weight): 0.11%
[2]; 20 minutes
  state of the crystals: (partly liquefied)
  weight increase rate (% relative to initial weight): 0.54%
[2]; 35 minutes
  weight increase rate (% relative to initial weight): 1.04%
[2]; 50 minutes
  weight increase rate (% relative to initial weight): 1.67%
[2]; 65 minutes
  state of the crystals: (whole sherbet)
  weight increase rate (% relative to initial weight): 2.27%
[2]; 80 minutes
  weight increase rate (% relative to initial weight): 2.83%
[2]; 95 minutes
  weight increase rate (% relative to initial weight): 3.36%
[2]; 110 minutes
  weight increase rate (% relative to initial weight): 3.97%
[2]; 125 minutes
  weight increase rate (% relative to initial weight): 4.54%
[2]; 140 minutes
  weight increase rate (% relative to initial weight): 5.13%
[2]; 155 minutes
  state of the crystals: (whole liquid)
  weight increase rate (% relative to initial weight): 5.48%
[2]; 170 minutes
  weight increase rate (% relative to initial weight): 6.02%
[2]; 185 minutes
  weight increase rate (% relative to initial weight): 6.56%
[2]; 200 minutes
  weight increase rate (% relative to initial weight): 7.03%
[3]
  time until a part of the crystal was liquefied: 35 min
  time until the whole mass was like a sherbet: 125 min
[3]; 0 minutes
  weight increase rate (%): 0.00%
[3]; 10 minutes
  weight increase rate (%): 3.03%
[3]; 20 minutes
  weight increase rate (%): 4.85%
[3]; 35 minutes
  weight increase rate (%): 7.30%
[3]; 50 minutes
  weight increase rate (%): 8.84%
[3]; 65 minutes
  weight increase rate (%): 10.42%
[3]; 80 minutes
  weight increase rate (%): 11.65%
[3]; 95 minutes
  weight increase rate (%): 12.77%
[3]; 110 minutes
  weight increase rate (%): 13.69%
[3]; 125 minutes
  weight increase rate (%): 14.74%
[3]; 140 minutes
  weight increase rate (%): 15.46%
[3]; 155 minutes
  weight increase rate (%): 16.23%
[3]; 170 minutes
  weight increase rate (%): 16.88%
[3]; 185 minutes
  weight increase rate (%): 17.43%
[3]; 200 minutes
  weight increase rate (%): 17.77%

## CCOC(=O)[C@H](C)N.Cl [L-Ala-OEt HCl salt, alanine ethyl ester hydrochloride]
[4]
  time until a part of the crystal was liquefied: 30 min
  time until the whole mass became like a sherbet: 100 min
[4]; 0 minutes
  weight increase rate (%): 0.00%
[4]; 15 minutes
  weight increase rate (%): 2.63%
[4]; 30 minutes
  weight increase rate (%): 4.56%
[4]; 45 minutes
  weight increase rate (%): 6.42%
[4]; 60 minutes
  weight increase rate (%): 7.76%
[4]; 75 minutes
  weight increase rate (%): 8.82%
[4]; 90 minutes
  weight increase rate (%): 9.53%
[4]; 120 minutes
  weight increase rate (%): 9.89%
[4]; 150 minutes
  weight increase rate (%): 10.39%
[4]; 180 minutes
  weight increase rate (%): 10.69%
[5]
  time to liquefaction of a part of the crystals: 60 min
  time until the entire salt became liquid: 750 min
[5]; 0 minutes
  weight increase rate (% relative to initial weight): 0.00%
[5]; 1 minutes
  weight increase rate (% relative to initial weight): 1.63%
[5]; 2 minutes
  weight increase rate (% relative to initial weight): 1.67%
[5]; 3 minutes
  weight increase rate (% relative to initial weight): 1.72%
[5]; 4 minutes
  weight increase rate (% relative to initial weight): 1.73%
[5]; 6 minutes
  weight increase rate (% relative to initial weight): 1.80%
[5]; 10 minutes
  weight increase rate (% relative to initial weight): 1.95%
[5]; 15 minutes
  weight increase rate (% relative to initial weight): 2.07%
[5]; 25 minutes
  weight increase rate (% relative to initial weight): 2.29%
[5]; 35 minutes
  weight increase rate (% relative to initial weight): 2.55%
[5]; 50 minutes
  weight increase rate (% relative to initial weight): 2.88%
[5]; 60 minutes
  state of the crystals: (partly liquefied)
  weight increase rate (% relative to initial weight): 3.09%
[5]; 75 minutes
  weight increase rate (% relative to initial weight): 3.38%
[5]; 90 minutes
  weight increase rate (% relative to initial weight): 3.63%
[5]; 120 minutes
  weight increase rate (% relative to initial weight): 4.10%
[5]; 150 minutes
  weight increase rate (% relative to initial weight): 4.41%
[5]; 180 minutes
  weight increase rate (% relative to initial weight): 4.89%
[5]; 750 minutes
  state of the crystals: (whole liquid)
  weight increase rate (% relative to initial weight): 14.37%

Source: patent US7205433B2, “Crystal of amino acid ester salt and process for producing the same” (Ajinomoto Co., Inc., priority 2002, dated 2007)
